According to US20250195638A1, “TREATMENT AND PREVENTION OF CONDITIONS ASSOCIATED WITH RESPIRATORY DISEASES” (priority 2020, published 2025):

Tested on: Plasmid (pMB57.6)-DNA
Type: binding
Settings: 0.5 μM

SARS-CoV-2 (2019-nCoV) nucleocapsid recombinant protein [N-protein]
decrease of fluorescence intensity of DNA-DiYO-1 complex: 96.3%
